Measured values as given in patent publication US8569292B2, “Cyclic inhibitors of 11β-hydroxysteroid dehydrogenase 1” (Vitae Pharmaceuticals, Inc., priority 2008, dated 2013).

Assays:
[1] = target: T1, 11β-HSD1 (Homo sapiens, UniProt P28845); assay: biochemical; conditions: for inhibition at 0.1 µM: read-out: Average % inhibition at 100 nM
[2] = target: T1, 11β-HSD1; assay: Biological Test Example 4: microsomal 11β-HSD1 in the presence of 50% human plasma; conditions: for Shift: IC50 in Test Example 4 divided by IC50 in Test Example 1
[3] = Biological Test Example 1 IC50 (nM)
[4] = IC50 Range, Biological Test Example 1

T1 sequence (P28845 whole entry): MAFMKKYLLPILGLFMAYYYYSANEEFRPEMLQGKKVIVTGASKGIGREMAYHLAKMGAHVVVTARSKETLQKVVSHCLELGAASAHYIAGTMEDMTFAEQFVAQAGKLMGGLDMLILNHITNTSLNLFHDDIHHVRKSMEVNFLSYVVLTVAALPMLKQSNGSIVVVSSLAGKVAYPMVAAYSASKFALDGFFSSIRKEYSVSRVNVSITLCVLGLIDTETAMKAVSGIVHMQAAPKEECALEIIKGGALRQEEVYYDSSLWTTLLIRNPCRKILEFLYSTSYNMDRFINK

Compound | IC50 [1, 3] | IC50 [1, 4] | inhibition at 0.1 µM [1] | IC50 [2] | Shift [2]
C[C@@H](c1ccc(-c2ncc(C(=O)NC(C)(C)C)s2)cc1)N1CC[C@](CC(C)(C)C#N)(c2ccccc2)OC1=O [EXAMPLE 24, N-tert-butyl-2-(4-((S)-1-((R)-6-(2-cyano-2-methylpropyl)-2-oxo-6-phenyl-1,3-oxazinan-3-yl)ethyl)phenyl)thiazole-5-carboxamide] | 0.8 nM | < 100 nM | 96.9% | 4.4 nM | 5.2
C[C@@H](c1ccc(-c2cccc(N(C)C)n2)cc1)N1CC[C@](CC(C)(C)O)(c2ccccc2)OC1=O [EXAMPLE 30, (S)-3-((S)-1-(4-(6-(dimethylamino)pyridin-2-yl)phenyl)ethyl)-6-(2-hydroxy-2-methylpropyl)-6-phenyl-1,3-oxazinan-2-one] | 0.9 nM | < 100 nM | 98.1% | 21.8 nM | 24.0
C[C@@H](c1ccc(-c2cnc(C(C)(C)O)nc2)cc1)N1CC[C@](CC(C)(C)O)(c2ccccc2)OC1=O [EXAMPLE 31, (S)-6-(2-hydroxy-2-methylpropyl)-3-((S)-1-(4-(2-(2-hydroxypropan-2-yl)pyrimidin-5-yl)phenyl)ethyl)-6-phenyl-1,3-oxazinan-2-one] | 4.8 nM | < 100 nM | 90.7% | 9.3 nM | 1.9
C[C@@H](c1ccc(-c2cccnc2)cc1)N1CC[C@](CCC(N)=O)(c2ccc(F)cc2)OC1=O [EXAMPLE 41, 3-((R)-6-(4-fluorophenyl)-2-oxo-3-((S)-1-(4-(pyridin-3-yl)phenyl)ethyl)-1,3-oxazinan-6-yl)propanamide] | 1.9 nM | < 100 nM | 96.8% | 11 nM | –
C=CC[C@]1(c2ccc(F)cc2)CCN([C@@H](C)c2ccc(-n3ccc(C(F)(F)F)n3)cc2)C(=O)O1 [EXAMPLE 43, (R)-6-allyl-6-(4-fluorophenyl)-3-((S)-1-(4-(3-(trifluoromethyl)-1H-pyrazol-1-yl)phenyl)ethyl)-1,3-oxazinan-2-one] | 8.6 nM | < 100 nM | 86.2% | 315 nM | 36.5
COc1ccc(-c2ccc([C@H](C)N3CC[C@](CCC(N)=O)(c4ccc(F)cc4)OC3=O)cc2)cn1 [EXAMPLE 66, 3-((R)-6-(4-fluorophenyl)-3-((S)-1-(4-(6-methoxypyridin-3-yl)phenyl)ethyl)-2-oxo-1,3-oxazinan-6-yl)propanamide] | 1.3 nM | < 100 nM | 95.6% | 9.7 nM | –
C[C@@H](c1ccc(-c2cccnc2)cc1)N1CC[C@](CCC(N)=O)(c2ccccc2)OC1=O [EXAMPLE 47, 3-((R)-2-oxo-6-phenyl-3-((S)-1-(4-(pyridin-3-yl)phenyl)ethyl)-1,3-oxazinan-6-yl)propanamide] | 2.6 nM | < 100 nM | 91% | 21.4 nM | –
C=CC[C@]1(c2ccc(F)cc2)CCN([C@@H](C)c2ccc(-c3sc(C)nc3C)cc2)C(=O)O1 [EXAMPLE 42, (R)-6-allyl-3-((S)-1-(4-(2,4-dimethylthiazol-5-yl)phenyl)ethyl)-6-(4-fluorophenyl)-1,3-oxazinan-2-one] | 1 nM | < 100 nM | 90.9% | 34.3 nM | 33.4
C[C@@H](c1ccc(-c2ncc(C(=O)NC(C)(C)C)s2)cc1)N1CC[C@](CC(C)(C)O)(c2ccccc2)OC1=O [EXAMPLE 23, N-tert-butyl-2-(4-((S)-1-((S)-6-(2-hydroxy-2-methylpropyl)-2-oxo-6-phenyl-1,3-oxazinan-3-yl)ethyl)phenyl)thiazole-5-carboxamide] | 2.7 nM | < 100 nM | 89.3% | 13.7 nM | 5.1
Cc1nccn1-c1ncc(-c2ccc([C@H](C)N3CC[C@](CC(C)(C)O)(c4ccccc4)OC3=O)cc2)cn1 [EXAMPLE 27, (S)-6-(2-hydroxy-2-methylpropyl)-3-((S)-1-(4-(2-(2-methyl-1H-imidazol-1-yl)pyrimidin-5-yl)phenyl)ethyl)-6-phenyl-1,3-oxazinan-2-one] | 1.2 nM | < 100 nM | 96.8% | 4.7 nM | 3.8
COc1ccc(-c2ccc([C@H](C)N3CC[C@](CCO)(c4ccc(F)cc4)OC3=O)cc2)cn1 [EXAMPLE 63, (S)-6-(4-fluorophenyl)-6-(2-hydroxyethyl)-3-((S)-1-(4-(6-methoxypyridin-3-yl)phenyl)ethyl)-1,3-oxazinan-2-one] | 0.8 nM | < 100 nM | 101% | 15.2 nM | 18.4
C[C@@H](c1ccc(-c2cccc(OC3CCCC3)n2)cc1)N1CC[C@](CC(C)(C)O)(c2ccccc2)OC1=O [EXAMPLE 28, (S)-3-((S)-1-(4-(6-(cyclopentyloxy)pyridin-2-yl)phenyl)ethyl)-6-(2-hydroxy-2-methylpropyl)-6-phenyl-1,3-oxazinan-2-one] | 1.4 nM | < 100 nM | 89.7% | 186 nM | 129.7

Results, then the compound that gave them:

IC50 [1, 3] | IC50 [1, 4] | inhibition at 0.1 µM [1] | IC50 [2] | Shift [2] | Compound
2.4 nM | < 100 nM | 94.5% | 42.5 nM | – | C[C@@H](c1ccc(-c2ncccc2C#N)cc1)N1CC[C@](CC(C)(C)O)(c2ccccc2)OC1=O [EXAMPLE 165, 2-(4-((S)-1-((S)-6-(2-hydroxy-2-methylpropyl)-2-oxo-6-phenyl-1,3-oxazinan-3-yl)ethyl)phenyl)nicotinonitrile]
0.96 nM | < 100 nM | 98.3% | 18.3 nM | 19.1 | C[C@@H](c1ccc(-c2ccc(OCCF)nc2)cc1)N1CC[C@](CC(C)(C)O)(c2ccccc2)OC1=O [EXAMPLE 200, (S)-3-((S)-1-(4-(6-(2-fluoroethoxy)pyridin-3-yl)phenyl)ethyl)-6-(2-hydroxy-2-methylpropyl)-6-phenyl-1,3-oxazinan-2-one]
0.5 nM | < 100 nM | 97.3% | 12.7 nM | 23.7 | COc1ccc(-c2ccc([C@H](C)N3CC[C@](CCO)(c4ccccc4)OC3=O)cc2)cn1 [EXAMPLE 92, (S)-6-(2-hydroxyethyl)-3-((S)-1-(4-(6-methoxypyridin-3-yl)phenyl)ethyl)-6-phenyl-1,3-oxazinan-2-one]
0.5 nM | < 100 nM | 98.5% | 7.9 nM | 16.6 | Cc1cc(-c2ccc([C@H](C)N3CC[C@](CCCNS(C)(=O)=O)(c4ccccc4)OC3=O)cc2)ccn1 [EXAMPLE 99, N-(3-((R)-3-((S)-1-(4-(2-methylpyridin-4-yl)phenyl)ethyl)-2-oxo-6-phenyl-1,3-oxazinan-6-yl)propyl)methanesulfonamide]
1.8 nM | < 100 nM | 98.1% | 25.2 nM | – | C[C@@H](c1ccc(-c2nccs2)cc1)N1CC[C@](CCCO)(c2ccc(F)cc2)OC1=O [EXAMPLE 82, (R)-6-(4-fluorophenyl)-6-(3-hydroxypropyl)-3-((S)-1-(4-(thiazol-2-yl)phenyl)ethyl)-1,3-oxazinan-2-one]
1.2 nM | < 100 nM | 99.4% | 22.2 nM | 18.2 | C[C@@H](c1ccc(-c2cc(C#N)ccn2)cc1)N1CC[C@](CC(C)(C)O)(c2ccccc2)OC1=O [EXAMPLE 164, 2-(4-((S)-1-((S)-6-(2-hydroxy-2-methylpropyl)-2-oxo-6-phenyl-1,3-oxazinan-3-yl)ethyl)phenyl)isonicotinonitrile]
1.1 nM | < 100 nM | 96.5% | 5.7 nM | – | C[C@@H](c1ccc(-c2cccnc2)cc1)N1CC[C@](CCCO)(c2ccc(F)cc2)OC1=O [EXAMPLE 197, (R)-6-(4-fluorophenyl)-6-(3-hydroxypropyl)-3-((S)-1-(4-(pyridin-3-yl)phenyl)ethyl)-1,3-oxazinan-2-one]
38.1 nM | < 100 nM | 79.9% | 114 nM | 3.0 | Cc1cc(-c2ccc([C@H](C)N3CC[C@](CCC(=O)O)(c4ccc(F)cc4)OC3=O)cc2)ccn1 [EXAMPLE 77, 3-((R)-6-(4-fluorophenyl)-3-((S)-1-(4-(2-methylpyridin-4-yl)phenyl)ethyl)-2-oxo-1,3-oxazinan-6-yl)propanoic acid]
1.7 nM | < 100 nM | 93.9% | 12.1 nM | 7.3 | Cc1cc(-c2ccc([C@H](C)N3CC[C@](CCN(C)S(C)(=O)=O)(c4ccccc4)OC3=O)cc2)ccn1 [EXAMPLE 117, N-methyl-N-(2-((S)-3-((S)-1-(4-(2-methylpyridin-4-yl)phenyl)ethyl)-2-oxo-6-phenyl-1,3-oxazinan-6-yl)ethyl)methanesulfonamide]
2.9 nM | < 100 nM | 91.5% | 31.9 nM | 11.0 | C[C@@H](c1ccc(-c2ccc(C(F)(F)F)cn2)cc1)N1CC[C@](CCCO)(c2ccc(F)cc2)OC1=O [EXAMPLE 109, (R)-6-(4-fluorophenyl)-6-(3-hydroxypropyl)-3-((S)-1-(4-(5-(trifluoromethyl)pyridin-2-yl)phenyl)ethyl)-1,3-oxazinan-2-one]
1.4 nM | < 100 nM | 87.2% | 31.7 nM | 21.9 | CCOc1cc(-c2ccc([C@H](C)N3CC[C@](CC(C)(C)O)(c4ccccc4)OC3=O)cc2)cc(C)n1 [EXAMPLE 162, (S)-3-((S)-1-(4-(2-ethoxy-6-methylpyridin-4-yl)phenyl)ethyl)-6-(2-hydroxy-2-methylpropyl)-6-phenyl-1,3-oxazinan-2-one]
